Results published in patent US8338334B2, “Synergistic herbicidal composition containing fluroxypyr and quinclorac” (Dow AgroSciences, LLC, priority 2010, dated 2012).
Where “and” joins values, the source holds several entries; their conditions need not be identical. Equal entries are not always repeated.

Columns and labels:
Assay in all cases: Postemergence herbicidal activity in the greenhouse, visual weed control
Type in all cases: in vivo
Conditions in all cases: 21 DAA
[1] = tested on: barnyardgrass (Echinochloa crus-galli; ECHCG)
Protocol: (§1) Seeds of the desired test plant species were planted in 80% mineral soil/20% grit planting mixture, which typically has a pH of 7.2 and an organic matter content of about 2.9 percent, in plastic pots with a surface area of 128 square centimeters (cm^2). The growing medium was steam sterilized. The plants were grown for 7-19 days in a greenhouse with an approximate 14-hour (h) photoperiod which was maintained at about 29° C. during the day and 26° C. during the night. Nutrients and water were added on a regular basis and supplemental lighting was provided with overhead metal halide 1000-Watt lamps as necessary. The plants were treated with postemergence foliar applications when they reached the third to fourth true leaf stage. All treatments were applied using a randomized complete block trial design, with 4 replications per treatment.
(§2) Treatments consisted of the compounds as listed in Table 1 for each compound applied alone and in combination. Formulated amounts of quinclorac and fluroxypyr-meptyl ester were placed in 60 milliliter (mL) glass vials and dissolved in a volume of 60 mL of a water solution containing Agri-dex crop oil concentrate in a 1% volume per volume (v/v) ratio. Compound requirements are based upon a 12 mL application volume at a rate of 187 liters per hectare (L/ha). Spray solutions of the mixtures were prepared by adding the stock solutions to the appropriate amount of dilution solution to form 12 mL spray solution with active ingredients in single and two way combinations. Formulated compounds were applied to the plant material with an overhead Mandel track sprayer equipped with 8002E nozzles calibrated to deliver 187 L/ha at a spray height of 18 inches (43 centimeters (cm)) above average plant canopy.
(§3) The treated plants and control plants were placed in a greenhouse as described above and watered by sub-irrigation to prevent wash-off of the test compounds. Treatments were rated at 21 days after application (DAA) as compared to the untreated control plants. Visual weed control was scored on a scale of 0 to 100 percent where 0 corresponds to no injury and 100 corresponds to complete kill.
(§4) All treatment results, both for the single product and mixtures, are an average of 4 replicates evaluated at 21 days after application, and the tank mix interactions are significant at the […] level.
(§5) Colby's equation was used to determine the herbicidal effects expected from the mixtures (Colby, S. R. Calculation of the synergistic and antagonistic response of herbicide combinations. Weeds 1967, 15, 20-22.).
(§6) The following equation was used to calculate the expected activity of mixtures containing two active ingredients, A and B: Expected=A+B−(A×B/100)

[2] = tested on: Chinese sprangletop (Leptochloa chinensis; LEFCH)
Protocol: as §1, §2, §3, §4, §5, §6

[3] = tested on: broadleaf signalgrass (Brachiaria platyphylla; BRAPP)
Protocol: as §1, §2, §3, §4, §5, §6

[4] = fluroxypyr-meptyl 50 g ae/ha alone
[5] = fluroxypyr-meptyl 100 g ae/ha alone
[6] = fluroxypyr-meptyl 200 g ae/ha alone

Row | SMILES | % Control ECHCG Ob (observed value) [1, 4] [%] | % Control ECHCG Ob (observed value) [1, 5] [%] | % Control ECHCG Ob (observed value) [1, 6] [%] | % Control LEFCH Ob (observed value) [2, 5] [%] | % Control LEFCH Ob (observed value) [2, 6] | % Control BRAPP Ob (observed value) [3, 4] [%] | % Control BRAPP Ob (observed value) [3, 5] [%] | % Control BRAPP Ob (observed value) [3, 6] [%] | % Control ECHCG Ob (observed value) ([1]; quinclorac 26 g ai/ha alone) [%] | % Control ECHCG Ob (observed value) ([1]; quinclorac 53 g ai/ha alone) [%] | % Control ECHCG Ob (observed value) ([1]; quinclorac 110 g ai/ha alone) [%] | % Control ECHCG Ob (observed value) ([1]; quinclorac 220 g ai/ha alone) [%] | % Control LEFCH Ob (observed value) ([2]; quinclorac 26 g ai/ha alone) [%] | % Control LEFCH Ob (observed value) ([2]; quinclorac 53 g ai/ha alone) [%] | % Control LEFCH Ob (observed value) ([2]; quinclorac 110 g ai/ha alone) [%] | % Control LEFCH Ob (observed value) ([2]; quinclorac 220 g ai/ha alone) [%] | % Control BRAPP Ob (observed value) ([3]; quinclorac 26 g ai/ha alone) [%] | % Control BRAPP Ob (observed value) ([3]; quinclorac 53 g ai/ha alone) [%] | % Control BRAPP Ob (observed value) ([3]; quinclorac 110 g ai/ha alone) [%] | % Control BRAPP Ob (observed value) ([3]; quinclorac 220 g ai/ha alone) [%]
1 | CCCCCCC(C)OC(=O)COc1nc(F)c(Cl)c(N)c1Cl (centres unmarked) [Fluroxypyr-meptyl] | 0 | 11 | 6 | 50 | 41% and 42% | 5 | 1 | 5 | – | – | – | – | – | – | – | – | – | – | – | –
2 | O=C(O)c1c(Cl)ccc2cc(Cl)cnc12 [Quinclorac, 3,7-dichloro-8-quinolinecarboxylic acid] | – | – | – | – | – | – | – | – | 5 | 6 | 31 | 65 | 5 | 10 | 15 | 11 | 5 | 6 | 5 | 26
